Measurements from PubChem BioAssay AID1549 (Sanford-Burnham Center for Chemical Genomics, 2009).
Calls of active or inactive are those of the source. No rule for the calls is given here.

What follows are compounds tested against Influenza A virus M2 proton channel (A/TW/4845/1999 H1N1) (assay: M2 proton channel binding, NMR based, influenza A virus H1N1 strain (AID 1549)). Conditions: NMR binding screen, M2 protein.

| SMILES | Kd |
| --- | --- |
| O=C(CNC(=O)c1cccs1)NC1=NCCS1 | > 4 mM (inactive) |
| O=C1COc2ccccc2C(=O)N1 | > 4 mM (inactive) |
| O=C(NN1C(=O)CSC1=S)c1ccccc1 | > 4 mM (inactive) |
| COc1ccc(S(=O)(=O)NCCO)cc1 | > 4 mM (inactive) |
| CN1CCN(CC(=O)N2CCc3ccccc32)CC1 | > 4 mM (inactive) |
| CC(=O)Nc1cc2c(cc1C(=O)C(C)C)OCCO2 | > 4 mM (inactive) |
| C=CCn1c(N)c(C(=O)N2CCOCC2)sc1=S | > 4 mM (inactive) |
| COc1ccc2c(c1)OCc1c-2oc2cc(OC)ccc12 | > 4 mM (inactive) |
| Cc1ccc(-c2nn(C)c(=O)c3ccccc23)cc1CO | > 4 mM (inactive) |
| Nc1c(C(=O)O)sc2ncccc12 | > 4 mM (inactive) |
| O=C(NCc1cccs1)c1nc2ncccn2n1 | > 4 mM (inactive) |
| O=C(O)c1ccc(-c2cnco2)cc1 | > 4 mM (inactive) |
| CCC(=O)OC1[C@@H]2CC3=C4CC(=O)O[C@@H](c5ccoc5)[C@]4(C)CCC3C(C)(C2=O)[C@@H](CC(=O)OC)C1(C)C (some centres undefined) | > 4 mM (inactive) |
| Nc1ccc(-n2cncn2)cc1 | > 4 mM (inactive) |
| Cc1nnc(SCc2ccon2)n1-c1ccccc1 | > 4 mM (inactive) |
| Cc1cc(C(=O)Nc2sc3c(c2C#N)CCC3)no1 | > 4 mM (inactive) |
| CNC(=S)Nc1ccc(OC)cc1C | > 4 mM (inactive) |
| OC1CC2CCC1C2 (centres undefined) | > 4 mM (inactive) |
| CC(CCC(=O)O)[C@H]1CCC2C3CC[C@@H]4C[C@H](O)CC[C@]4(C)C3CC[C@@]21C (some centres undefined) | > 4 mM (inactive) |
| O=C(O)c1ccc2[nH]c3c(c2c1)CSCC3 | > 4 mM (inactive) |
| OC/C=C/c1ccc(O)c(O)c1 | > 4 mM (inactive) |
| CC(C)CCCC(C)[C@H]1CCC2C3CC=C4C[C@@H](O)CC[C@]4(C)C3CC[C@@]21C (some centres undefined) | > 4 mM (inactive) |
| COc1ccc2c(C)cc(=O)oc2c1 | > 4 mM (inactive) |
| CC1(C)Oc2ccc(N)cc2O1 | > 4 mM (inactive) |

| SMILES | Kd |
| --- | --- |
| CCN1C(=O)c2c(C)nc3ccccc3c2C1=O | > 4 mM (inactive) |
| Nc1ccncc1 | > 4 mM (inactive) |
| Cc1cccc(OCc2nnc(N)s2)c1 | > 4 mM (inactive) |
| O=C1CSC(=S)N1Cc1cccnc1 | > 4 mM (inactive) |
| Cc1cccc(NC(=O)c2ccc(=O)[nH]n2)c1 | > 4 mM (inactive) |
| C[C@@H]1O[C@@H](O[C@H]2[C@@H](Oc3cc(O)c4c(c3)O[C@H](c3ccc(O)cc3)CC4=O)O[C@H](CO)[C@@H](O)[C@@H]2O)[C@H](O)[C@H](O)[C@H]1O | > 4 mM (inactive) |
| CN1CCN(C(=O)/C=C\C(=O)O)CC1 | > 4 mM (inactive) |
| O=S(=O)(Cc1ccc(Cl)cc1)N1CCCC1 | > 4 mM (inactive) |
| Cc1sc(N)c(C(N)=O)c1C | > 4 mM (inactive) |
| O=C1NC(=S)N/C1=C\c1ccccc1F | > 4 mM (inactive) |
| O=S1(=O)CCC2CC=CCC21 (centres undefined) | > 4 mM (inactive) |
| COC(=O)c1c(SC)nc(-c2ccccc2)[nH]c1=O | > 4 mM (inactive) |
| COc1ccc(/C=C2/SC(N)=NC2=O)c(OC)c1 | > 4 mM (inactive) |
| Cc1nc2ccc(F)cc2cc1C(=O)NCc1ccco1 | > 4 mM (inactive) |
| CCOc1ccc(Cl)cc1S(=O)(=O)N1CCCC1 | > 4 mM (inactive) |
| NC(=O)CNC(=O)c1ccc2ccccc2n1 | > 4 mM (inactive) |
| O=c1/c(=C\c2cccnc2)sc2nc3ccccc3n12 | > 4 mM (inactive) |
| Nc1nc(-c2ccc(Cl)cc2)nn1C(=O)c1cccnc1 | > 4 mM (inactive) |
| O=C(Nc1cnccn1)c1ccncc1 | > 4 mM (inactive) |
| Cc1cc(C(=O)Nc2ccon2)cs1 | > 4 mM (inactive) |
| CC(C)[C@@H]1CC[C@@H](C)CC1=O | > 4 mM (inactive) |
| O=C1NC(=S)N/C1=C/c1ccc(O)c(Cl)c1 | > 4 mM (inactive) |
| CCOC(=O)CSc1nnc(C)c(=O)[nH]1 | > 4 mM (inactive) |
| Cc1ncc(C(=O)O)c(-c2ccccc2)n1 | > 4 mM (inactive) |

| SMILES | Kd |
| --- | --- |
| O=C(O)C1=CCCNC1 | > 4 mM (inactive) |
| O=C(Nc1ccc(F)cc1F)c1ccco1 | > 4 mM (inactive) |
| CC(=O)NC1C(=O)Nc2c(C)cc(C)cc21 (centres undefined) | > 4 mM (inactive) |
| Cc1nc2cc(Cl)ccc2n1CCO | > 4 mM (inactive) |
| CC(C)=CCc1c(O)cc2occ(-c3ccc4c(c3)OCO4)c(=O)c2c1O | > 4 mM (inactive) |
| COc1cc(O)c2c(c1)C(=O)c1cc(C)cc(O)c1C2=O | > 4 mM (inactive) |
| CCOC(=O)Cc1nc2ccccc2[nH]1 | > 4 mM (inactive) |
| N#CCCn1c(=O)oc2ccccc21 | > 4 mM (inactive) |
| O/N=C1/CCCc2nonc21 | > 4 mM (inactive) |
| NS(=O)(=O)c1ccc(N=C2NC(=O)CS2)cc1 | > 4 mM (inactive) |
| Cc1noc(C)c1C(=O)N1CCN(c2ncccn2)CC1 | > 4 mM (inactive) |
| O=C(c1ccco1)N1CCN(Cc2cccc(F)c2)CC1 | > 4 mM (inactive) |
| O=C(O)C1C(=O)NCC1c1ccccc1 (centres undefined) | > 4 mM (inactive) |
| CC(C)(C)NC(=O)N1CCC(C(=O)O)CC1 | > 4 mM (inactive) |
| Cc1nc2ccccc2c(=O)n1/N=C/c1ccco1 | > 4 mM (inactive) |
| COc1ccccc1Nc1nncc(=O)[nH]1 | > 4 mM (inactive) |
| CN(C)c1ccc(NC(=O)CC(C(=O)O)N(C)C)cc1 (centres undefined) | > 4 mM (inactive) |
| CC1O[C@@H](Oc2c(-c3ccc(O)c(O)c3)oc3cc(O)cc(O)c3c2=O)[C@H](O)[C@H](O)[C@H]1O (some centres undefined) | > 4 mM (inactive) |
| CC(=O)OCC[C@H](C)CCC=C(C)C | > 4 mM (inactive) |
| Nc1nncn1C(=O)c1ccccc1Cl | > 4 mM (inactive) |
| Cn1c(NCc2ccccc2O)nc2ccccc21 | > 4 mM (inactive) |
| C[C@@H]1CC[C@]2(C(=O)O)CC[C@]3(C)C(=CCC4[C@@]5(C)CC[C@H](O)C(C)(C)C5CC[C@]43C)C2[C@H]1C (some centres undefined) | > 4 mM (inactive) |
| CCCNC(=O)CSc1nnc(C)s1 | > 4 mM (inactive) |
| COc1ccc([C@@H](C)C(=O)c2ccc(O)cc2O)cc1 | > 4 mM (inactive) |

| SMILES | Kd |
| --- | --- |
| OCc1ccc2nsnc2c1 | > 4 mM (inactive) |
| NCc1ccc(S(N)(=O)=O)cc1 | > 4 mM (inactive) |
| COc1ccccc1NC(=O)c1ccc(C)s1 | > 4 mM (inactive) |
| CC(C)CNc1cc(=O)n(C)c(=O)n1C | > 4 mM (inactive) |
| c1ccc2c(NC3=NCCS3)cccc2c1 | > 4 mM (inactive) |
| Cc1nnc(-n2cnc3ccccc32)c2ccccc12 | > 4 mM (inactive) |
| O=C(Nc1nncs1)c1c(F)c(F)c(F)c(F)c1F | > 4 mM (inactive) |
| CCc1ccccc1NC(=O)c1cnccn1 | > 4 mM (inactive) |
| CCOc1nc(C)ccc1-c1noc(-c2ccncc2)n1 | > 4 mM (inactive) |
| COc1ccc(C)cc1S(=O)(=O)N1CCCCC1 | > 4 mM (inactive) |
| CNC(=O)Cn1c(=O)n(C)c2ccccc21 | > 4 mM (inactive) |
| Cc1cc(C(=O)Nc2sc(C)c(C)c2C#N)c(C)o1 | > 4 mM (inactive) |
| COc1cc2c(cc1O)CC1c3c(cc(O)c(OC)c3-2)CCN1C (centres undefined) | > 4 mM (inactive) |
| Cc1c(F)cccc1NS(=O)(=O)c1ccccc1C#N | > 4 mM (inactive) |
| Cn1ncc(C(=O)O)c1-c1ccccc1 | > 4 mM (inactive) |
| NC(=O)C1CCN(c2ncnc(N)c2[N+](=O)[O-])CC1 | > 4 mM (inactive) |
| Cc1cc(C(=O)N2CCN(c3ccccn3)CC2)c(C)o1 | > 4 mM (inactive) |
| Nc1nncn1C(=O)c1c(Cl)cccc1Cl | > 4 mM (inactive) |
| O=CN1CCN(C(=O)c2ccccc2Cl)CC1 | > 4 mM (inactive) |
| Cc1nc(-c2ccccc2)sc1C(N)=O | > 4 mM (inactive) |
| NC(=O)CSc1ccc2nnc(-c3cccs3)n2n1 | > 4 mM (inactive) |
| CC1(C)C=Cc2cc3ccc(=O)oc3cc2O1 | > 4 mM (inactive) |
| CC(=O)O[C@@H]1CC2C(C)(C)C(=O)C=C[C@]2(C)C2CC[C@@]3(C)[C@H](c4ccoc4)OC(=O)[C@H]4O[C@]43[C@@]21C (some centres undefined) | > 4 mM (inactive) |
| O=C(O)CCc1ccc2c(c1)OCO2 | > 4 mM (inactive) |

| SMILES | Kd |
| --- | --- |
| NNC(=O)c1ccccc1-n1cccc1 | > 4 mM (inactive) |
| Cc1ccccc1NC(=O)/C=C\C(N)=O | > 4 mM (inactive) |
| c1ccc(-c2nsc(N3CCCNCC3)n2)cc1 | > 4 mM (inactive) |
| c1cncc(Nc2nc(-c3cccnc3)cs2)c1 | > 4 mM (inactive) |
| CCC(C)C(NC)C(=O)O (centres undefined) | > 4 mM (inactive) |
| Cn1c(=O)cc(O)c2ccccc21 | > 4 mM (inactive) |
| CN(Cc1nc2ccccc2n1C)C(=O)c1cccs1 | > 4 mM (inactive) |
| NC(=O)CSc1ccc(-c2ccco2)nn1 | > 4 mM (inactive) |
| CC1(C)Cc2c(c(-c3ccco3)[nH]c(=O)c2C#N)CO1 | > 4 mM (inactive) |
| Cc1oc(-c2ccccc2)cc1C(N)=O | > 4 mM (inactive) |
| O=C(CSc1ncccn1)NCc1ccco1 | > 4 mM (inactive) |
| Cc1ccc(C(=O)CS(C)(=O)=O)cc1 | > 4 mM (inactive) |
| Cc1ccccc1NC(=S)NCCO | > 4 mM (inactive) |
| COc1c2occc2c(OC)c2c(=O)cc(C)oc12 | > 4 mM (inactive) |
| CCC(=O)n1nc(-c2ccco2)nc1N | > 4 mM (inactive) |
| COc1cc(C)c2c(c1C=O)Oc1c(c(C)c(O)c3c1C(O)OC3=O)OC2=O (centres undefined) | > 4 mM (inactive) |
| C[C@H]1OC(O[C@H]2[C@@H](O)CC(O[C@H]3[C@@H](O)C[C@H](O[C@H]4CC[C@]5(C)C6CC[C@]7(C)[C@@H](C8=CC(=O)OC8)[C@@H](O)C[C@]7(O)[C@@H]6CC[C@@H]5C4)O[C@@H]3C)O[C@@H]2C)C[C@H](O)C1O (some centres undefined) | > 4 mM (inactive) |
| Oc1ccc2c(c1)OCC1(O)Cc3cc(O)c(O)cc3C21 (centres undefined) | > 4 mM (inactive) |
| OCc1cc2ccccc2o1 | > 4 mM (inactive) |
| O=C(c1nc2ncccn2n1)N1CCc2ccccc2C1 | > 4 mM (inactive) |
| Cc1ccccc1CSc1nnc(C)n1N | > 4 mM (inactive) |
| Oc1ccc(-n2cncn2)cc1 | > 4 mM (inactive) |
| Nc1ccc(-n2cccc2)cc1 | > 4 mM (inactive) |
